Results from US4925968A, “N-acyl-N-naphthoylglycines as aldose reductase inhibitors” (American Home Products Corporation, priority 1989, dated 1990).

Tested on: aldose reductase
Test: galactitol (dulcitol) accumulation in lens, sciatic nerve and diaphragm of galactosemic rats
Format: in vivo, rat (Sprague-Dawley, male)
Conditions: 4 days; for % Lowering dulcitol accumulation IN VIVO, D: diaphragm; for % Lowering dulcitol accumulation IN VIVO, L: lens
Source text: Such experiments are exemplified hereinbelow after the listing of the following general comments pertaining to these experiments: (a) Four or more groups of six male rats, 50-70 g, Sprague-Dawley strain, were used. The first group, the control group, was fed a mixture of laboratory chow (rodent Laboratory Chow, Purina) and glucose at 20% (w/w %) concentration. […] The test compound was either admixed to the diet or administered by gavage. In experiments involving compound administration in the diet, the average dose administered was calculated from the actual food intake of the animals in each group. The concentration of galactose in the diet of the treated groups was the same as that for the untreated galactosemic group. (b) After four days, the animals were killed by decapitation. The eyeballs were removed and punctured with a razor blade; the freed lenses were rolled gently on filter paper and weighed. The sciatic nerves were dissected as completely as possible and weighed. Both tissues when frozen can be kept up to two weeks before being analyzed for galactitol. […] Only two minor reagent changes were made: (a) The rinsing mixture was an aqueous 5% (w/v) trichloroacetic acid solution and (b) the stock solution was prepared by dissolving 25 mg of dulcitol in 100 mL of an aqueous trichloroacetic acid solution. [N.B.: For each experiment the average value found in the tissue from rats fed the glucose diet was subtracted from the individual values found in the corresponding tissue in galactose-fed rats to obtain the amount of polyol accumulated.] […] In the present case the procedure of Hayman and Kinoshita was modified in that the final chromatography step was omitted in the preparation of the enzyme from bovine lens. […] The figures under L, N, and D represent the percentage decrease of galactitol accumulation in the tissues of the lens, sciatic nerve, and diaphragm, respectively, for treated rats as compared to untreated rats.

SMILES: COc1ccc2c(C(=O)N(CC(=O)O)C(=O)OCC(C)(C)C)cccc2c1C(F)(F)F [Example 5]
- % Lowering dulcitol accumulation IN VIVO, D (105 mg/kg): N.S.
- % Lowering dulcitol accumulation IN VIVO, L (105 mg/kg): N.S.

SMILES: COC(=O)N(CC(=O)O)C(=O)c1cccc2c(Br)cccc12 [Example 12]
- % Lowering dulcitol accumulation IN VIVO, D (102 mg/kg): 24%
- % Lowering dulcitol accumulation IN VIVO, L (102 mg/kg): N.S.

SMILES: COc1ccc2c(C(=O)N(CC(=O)O)C(=O)OCc3ccccc3)cccc2c1C(F)(F)F [Example 6]
- % Lowering dulcitol accumulation IN VIVO, D (67 mg/kg): N.S.
- % Lowering dulcitol accumulation IN VIVO, L (67 mg/kg): N.S.

SMILES: O=C(O)CN(C(=O)c1ccccc1)C(=O)c1cccc2c(Br)cccc12 [Example 16]
- % Lowering dulcitol accumulation IN VIVO, D (111 mg/kg): N.S.
- % Lowering dulcitol accumulation IN VIVO, L (111 mg/kg): N.S.

SMILES: CCCOC(=O)N(CC(=O)O)C(=O)c1cccc2c(C(F)(F)F)c(OC)ccc12 [Example 3]
- % Lowering dulcitol accumulation IN VIVO, D (48 mg/kg): N.S.
- % Lowering dulcitol accumulation IN VIVO, L (48 mg/kg): N.S.

SMILES: O=CN(CC(=O)O)C(=O)c1cccc2c(Br)cccc12 [Example 14]
- % Lowering dulcitol accumulation IN VIVO, D (104 mg/kg): 17%
- % Lowering dulcitol accumulation IN VIVO, L (104 mg/kg): N.S.

SMILES: CC(=O)N(CC(=O)O)C(=O)c1cccc2c(Br)cccc12 [Example 15]
- % Lowering dulcitol accumulation IN VIVO, D (112 mg/kg): N.S.
- % Lowering dulcitol accumulation IN VIVO, L (112 mg/kg): N.S.

SMILES: COc1ccc2c(C(=O)N(C=O)CC(=O)O)cccc2c1C(F)(F)F [Example 8, N-Formyl-N-[[6-methoxy-5-(trifluoromethyl)-1-naphthalenyl]carbonyl]glycine]
- % Lowering dulcitol accumulation IN VIVO, D (107 mg/kg): 82%
- % Lowering dulcitol accumulation IN VIVO, L (107 mg/kg): 13%

SMILES: CCOC(=O)N(CC(=O)O)C(=O)c1cccc2c(C(F)(F)F)c(OC)ccc12 [Example 1, N-[[6-Methoxy-5-(trifluoromethyl)-1-naphthalenyl]carbonyl]-N-[(ethoxy)carbonyl]glycine]
- % Lowering dulcitol accumulation IN VIVO, D (57 mg/kg): 70%
- % Lowering dulcitol accumulation IN VIVO, D (97 mg/kg): 83%
- % Lowering dulcitol accumulation IN VIVO, L (57 mg/kg): 19%
- % Lowering dulcitol accumulation IN VIVO, L (97 mg/kg): 12%

SMILES: COc1ccc2c(C(=O)N(CC(=O)O)C(=O)OCc3ccc(Cl)c([N+](=O)[O-])c3)cccc2c1C(F)(F)F [Example 7]
- % Lowering dulcitol accumulation IN VIVO, D (107 mg/kg): N.S.
- % Lowering dulcitol accumulation IN VIVO, L (107 mg/kg): N.S.

SMILES: COC(=O)N(CC(=O)O)C(=O)c1cccc2c(C(F)(F)F)c(OC)ccc12 [Example 2, N-[[6-Methoxy-5-(trifluoromethyl)-1-naphthalenyl]-carbonyl]-N-[(methoxy)carbonyl]glycine]
- % Lowering dulcitol accumulation IN VIVO, D (48 mg/kg): 54%
- % Lowering dulcitol accumulation IN VIVO, L (48 mg/kg): N.S.

SMILES: COc1ccc2c(C(=O)N(CC(=O)O)C(=O)OC(C)C)cccc2c1C(F)(F)F [Example 4]
- % Lowering dulcitol accumulation IN VIVO, D (dose (mg/kg) printed as N.S.): N.S.
- % Lowering dulcitol accumulation IN VIVO, L (dose (mg/kg) printed as N.S.): N.S.

SMILES: COc1ccc2c(C(=O)N(CC(=O)O)C(=O)c3ccccc3)cccc2c1C(F)(F)F [Example 10, N-Benzoyl-N-[[6-methoxy-5-(trifluoromethyl)-1-naphthalenyl]carbonyl]glycine]
- % Lowering dulcitol accumulation IN VIVO, D (50 mg/kg): N.S.
- % Lowering dulcitol accumulation IN VIVO, L (50 mg/kg): N.S.

SMILES: COc1ccc2c(C(=O)N(CC(=O)O)C(C)=O)cccc2c1C(F)(F)F [Example 9]
- % Lowering dulcitol accumulation IN VIVO, D (100 mg/kg): 39%
- % Lowering dulcitol accumulation IN VIVO, L (100 mg/kg): N.S.
